From patent publication US9464064B2, “HCV helicase inhibitors and methods of use thereof” (University of Kansas, priority 2011, dated 2016)

How the values were obtained:
NS3h_2a(JFH1) = molecular target: T1, NS3h_2a(JFH1) (Hepatitis C virus genotype 2a, UniProt Q99IB8); assay: NS3 intrinsic protein fluorescence titration; format: binding, hepatitis C virus genotype 2a(JFH1); conditions: corrected for inner filter effects
T1 construct: truncated C-terminally His-tagged NS3 proteins lacking the N-terminal protease, called NS3h; His-tag (C); made in house
T1 sequence (Q99IB8 1196-1661): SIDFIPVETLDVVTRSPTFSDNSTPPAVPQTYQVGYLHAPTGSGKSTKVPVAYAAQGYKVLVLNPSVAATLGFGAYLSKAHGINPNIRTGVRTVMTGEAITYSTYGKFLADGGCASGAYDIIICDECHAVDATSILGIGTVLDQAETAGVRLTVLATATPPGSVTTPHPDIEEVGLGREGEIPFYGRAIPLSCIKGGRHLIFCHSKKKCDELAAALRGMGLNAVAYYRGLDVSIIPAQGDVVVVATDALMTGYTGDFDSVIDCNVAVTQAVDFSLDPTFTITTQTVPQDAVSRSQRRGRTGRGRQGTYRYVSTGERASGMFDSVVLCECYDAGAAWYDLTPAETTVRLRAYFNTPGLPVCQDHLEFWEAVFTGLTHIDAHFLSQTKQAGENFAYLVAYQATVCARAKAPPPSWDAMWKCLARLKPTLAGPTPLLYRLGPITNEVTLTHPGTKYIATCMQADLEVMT
Description: Compound effects on NS3 intrinsic protein fluorescence were determined by adding aliquots of each compound (1 μl of a 1 mM solution in DMSO) sequentially to 50, 100, or 200 nM of NS3h_2a(JFH1), or 100 nM scNS4A-NS3 dissolved in 2 ml of 25 mM MOPS pH 7, 1.25 mM MgCl2, 0.01% (v/v) TWEEN 20 and 0.3 mM DTT. The titrations were performed in a stirred, temperature-controlled 1 cm cuvette at 23° C. in a Cary Eclipse Fluorescence Spectrophotometer (Agilent Technologies). Intrinsic protein fluorescence was recorded by exciting the sample at 280 nm and reading emission at 340 nm. Excitation and emission slit widths were set to 5 and 10 nm, respectively. All raw fluorescence data were corrected for sample dilution and inner filter effects using Equation 5: Fc=Fobs(V0+Vi)/V0*10^(Aex+Aem/2) (Equation 5) where Fc is corrected fluorescence, Fobs is observed fluorescence, V0 is initial sample volume, Vi is total volume of titrant added, Aex is the absorbance of the solution at the excitation wavelength (280 nm), and Aem is the absorbance of the solution at the emission wavelength (340 nm). Absorbance was calculated at each point in the titrations from extinction coefficients for each compound in titration buffer, which were calculated at 280 nm and 340 nm using four different compound concentrations. […] Fc=F0−(ΔFmax*[…]/(Kd^n+(C)^n)) (Equation 6) In equation 6, […], F0 is fluorescence in the absence of compound, ΔFmax is the maximum change in fluorescence, n is the Hill coefficient, and C is compound concentration.
To examine the direct interaction of the compounds with NS3, the effect of a select few compound on NS3 intrinsic protein fluorescence was analyzed. This technique has been widely used to monitor the interaction of NS3 with its nucleic acid ligands (Lam, et al. (2004) Nucleic Acids Res. 32:4060-4070; Levin & Patel (2002) J. Biol. Chem. 277:29377-29385; Preugschat, et al. (1996) J. Biol. Chem. 271:24449-24457) and other small molecules (Belon, et al. (2010) supra). […] Of note is the fact that, unlike compounds that simply compete for the nucleic acid binding site (e.g., (BIP)2B; Belon, et al. (2010) supra), the primuline derivatives bound NS3h cooperatively as evident from their sigmoid binding isotherms and Hill coefficients greater than one (Equation 6). When compounds were tested against scNS4A-NS3, binding again was detected and apparent affinity for the full-length complex was about 5 times higher than it was for NS3h.

MBHA DNA substrate = assay: Fluorescent intercalation displacement (FID) assay, ethidium bromide; format: binding; conditions: FID; mean ± SD; read-out: DNA Binding (Ethidium Bromide) EC50
Description: Fluorescent intercalation displacement (FID) assays (Boger, et al. (2001) J. Am. Chem. Soc. 123:5878-5891) were used to measure the ability of a compound to bind the MBHA substrate. The concentration at which half the ethidium bromide is displaced (EC50) was determined using the different conditions as above to more closely mimic the conditions of a standard helicase assay. Each 100 μL reaction contained 25 mM MOPS pH 6.5, 0.16 μM MBHA DNA substrate (lacking Cy5 and IBQ-RQ modifications), 2 μM ethidium bromide, and various concentrations of test compound. Fluorescence of ethidium bromide was monitored using excitation and emission wavelengths of 545 and 595 nm, respectively, on a Cary Eclipse fluorescence spectrophotometer in white 96-well plates. The amount of ethidium bromide-DNA complex fluorescence was used to estimate the ability of compounds to bind DNA, and therefore displace the fluorescent intercalator (ethidium bromide).
In Equation 4, Fc is the fluorescence in the presence of the compound, F(−) is the average DMSO-only negative controls, and F(+) is the average positive controls (100 μM berenil). EC50 values were from a normalized dose-response curve.
These twelve hits were then subjected to a counterscreen designed to independently identify DNA binding compounds using a modified fluorescent intercalator displacement (FID) assay (Boger, et al. (2001) supra). The FID assay used ethidium bromide to judge a compound's ability to bind DNA and was based on the assumption that a DNA binding compound would displace a fluorescent DNA intercalating agent, leading to an observable decrease in observed fluorescence. Compounds were tested at 1.5 μM in the presence of the 25 base pair substrate used in the helicase assays.

NS3h_1b(con1) = molecular target: T2, NS3h_1b(con1) (Hepatitis C virus genotype 1b, UniProt Q9WMX2); assay: ATP hydrolysis assay (malachite green); format: biochemical
T2 construct: truncated C-terminally His-tagged NS3 proteins lacking the N-terminal protease, called NS3h; His-tag (C); made in house
T2 sequence (Q9WMX2 1192-1657): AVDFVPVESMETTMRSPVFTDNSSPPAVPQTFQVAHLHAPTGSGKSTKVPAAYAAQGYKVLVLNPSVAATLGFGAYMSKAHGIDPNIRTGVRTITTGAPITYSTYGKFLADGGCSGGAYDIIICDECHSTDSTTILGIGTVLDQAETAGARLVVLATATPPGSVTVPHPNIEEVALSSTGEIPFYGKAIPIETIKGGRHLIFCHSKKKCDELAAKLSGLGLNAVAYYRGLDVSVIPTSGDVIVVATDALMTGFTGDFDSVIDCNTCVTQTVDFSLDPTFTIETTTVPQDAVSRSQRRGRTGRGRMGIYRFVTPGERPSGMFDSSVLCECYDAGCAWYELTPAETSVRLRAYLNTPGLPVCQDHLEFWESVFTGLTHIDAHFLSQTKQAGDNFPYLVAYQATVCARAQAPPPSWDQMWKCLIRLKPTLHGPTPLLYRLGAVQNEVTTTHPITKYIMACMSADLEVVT
Description: A modified “malachite green” assay (Lanzetta, et al. (1979) Anal. Biochem. 100:95-97) was used to measure ATP hydrolysis. Fifty μL reactions contained 25 mM MOPS pH 6.5, 5 mM MgCl2, 2 mM ATP, 5 μg/mL BSA, 0.01% (v/v) TWEEN 20, 0.05 mM DTT, and poly(U) RNA (Saint Louis, Mo.) as indicated. Reactions were initiated by adding NS3h_1b(con1). Reactions were incubated for 15 minutes at 37° C. then stopped by mixing 40 μL of the reaction into 200 μL of the malachite green reagent (3 volumes 0.045% (w/v) malachite green, 1 volume 4.2% ammonium molybdate in 4N HCl, 0.05 volume of 20% TWEEN 20). […] Absorbance at 630 nm was proportional to the concentration of phosphate produced; free phosphate produced was measured against a standard curve.

SMILES	interaction with NS3 (intrinsic protein fluorescence) (NS3h_2a(JFH1))	EC50 (MBHA DNA substrate)	IC50 (NS3h_1b(con1))	effect on NS3 ATP hydrolysis (NS3h_1b(con1); presence and absence of RNA)
Cc1ccc2nc(-c3ccc4nc(-c5ccc(NC(=O)c6ccc(C(F)(F)F)cc6)cc5)sc4c3)sc2c1S(=O)(=O)O [Compound 12, 6-methyl-2′-(4-(4-(trifluoromethyl)benzamido)phenyl)-[2,6′-bibenzo[d]thiazole]-7-sulfonic acid]	clear interaction			
Cc1ccc2nc(-c3ccc4nc(-c5ccc(NC(=O)c6cccc(Cl)c6)cc5)sc4c3)sc2c1S(=O)(=O)O [Compound 17, 2′-(4-(3-chlorobenzamido)phenyl)-6-methyl-[2,6′-bibenzo[d]thiazole]-7-sulfonic acid]	clear interaction			
Cc1ccc2nc(-c3ccc4nc(-c5ccc(NC(=O)c6cc(C(F)(F)F)cc(C(F)(F)F)c6)cc5)sc4c3)sc2c1S(=O)(=O)O [Compound 24, 2′-(4-(3,5-bis(trifluoromethyl)benzamido)phenyl)-6-methyl-[2,6′-bibenzo[d]thiazole]-7-sulfonic acid]	clear interaction			
Cc1ccc2nc(-c3ccc4nc(-c5ccc(NC(=O)c6ccc7ccccc7c6)cc5)sc4c3)sc2c1S(=O)(=O)O [Compound 33, 2′-(4-(2-naphthamido)phenyl)-6-methyl-[2,6′-bibenzo[d]thiazole]-7-sulfonic acid]	clear interaction			
Cc1ccc2nc(-c3ccc4nc(-c5ccc(N)cc5)sc4c3)sc2c1S(=O)(=O)O [Compound P2a, 2′-(4-aminophenyl)-6-methyl-[2,6′-bibenzo[d]thiazole]-7-sulfonic acid]		> 100 µM		
Cc1ccc2nc(-c3ccc4nc(-c5ccc6nc(-c7ccc(N)cc7)sc6c5)sc4c3)sc2c1S(=O)(=O)O [Compound P3, 2″-(4-aminophenyl)-6-methyl-[2,6′:2′,6″-terbenzo[d]thiazole]-7-sulfonic acid]		55 ± 20 µM	15 ± 4 µM	
Cc1ccc2nc(-c3ccc4nc(-c5ccc6nc(-c7ccc8nc(-c9ccc(N)cc9)sc8c7)sc6c5)sc4c3)sc2c1S(=O)(=O)O [Compound P4, 2′″-(4-aminophenyl)-6-methyl-[2,6′:2″,6′″-quaterbenzo[d]thiazole]-7-sulfonic acid]		15 ± 3 µM	5 ± 3 µM	inhibited ATP hydrolysis both in the presence and absence of RNA
